Assays:
immature uterus = test: study of estrogenic activity (uterine weight of immature mice); conditions: same dosage schedule as estryne
Procedure: The animals were housed in a temperature controlled room under a constant lighting schedule and maintained on a diet of Charles River Rat Formula and water ad libitum. The diet of the hypophy-sectomized animals was supplemented with organges.
On the fourth day the uteri were removed and weighed.
Thus, immature female mice received estryne at doses up to a maximum of 100 μg total dose over three days, and the wet weight of the uteri were determined.

[1] = target: Δ^5 -3-ketosteroid isomerase (Comamonas testosteroni, UniProt P00947); test: inhibition of isomerase by allenic ketones, pseudo first order conditions; type: biochemical, Pseudomonas testosteroni; conditions: for half life for loss of enzyme activity / isomerisation of the allenic ketone under assay conditions: allenic ketone 200 μM, 1 mM phosphate buffer, pH = 7; for isomerisation of the allenic ketone under assay conditions: isomerase
Source text: As noted above, the acetylenic compounds of the invention, e.g. estryne and pregnyne, are converted into the corresponding conjugated allenic ketones which then react irreversibly with the enzyme. These allenic ketones are also novel and constitute an important embodiment of the invention. The allenic ketones derived from estryne are 6β(H)-5,10-secoestra-4,5-diene-3,10,17-trione and 6α(H)-5,10-secoestra-4,5-diene-3,10,17-trione. These allenic ketones have been tested as inhibitors of isomerase and have been found effective in this regard.

[2] = test system: ventral prostate and dorsal lateral prostate; test: effects of 6β(H)-allenic ketone on intact male Sprague-Dawley rats: body and prostate weights; type: in vivo; conditions: 0.6mg in propylene glycol (0.2ml) daily for 7 days, i.p.
Procedure: Effects of 6β(H)-5,10-Seco-19-norestra-4,5-diene-3,10,17-trione on intact male Sprague-Dawley rats
The compound (0.6mg) dissolved in propylene glycol (0.2ml) was administered daily for 7 days by the intraperitoneal route. The experimental group and control group each comprised 5 animals; and weghts of animals as well the wet tissue weights of ventral prostate and dorsal lateral prostate are averaged for each group.

[3] = test system: endogenous androgen biosynthesis; test: study in intact male rats: weights of sex accessory tissue and other organs; type: in vivo, male Sprague-Dawley rats
Procedure: Studies with intact male Sprague-Dawley rats (300g body weight) are illustrated for compounds (1) and (2).
Similarly, compound (2), […] rats at a dosage of 20mg per kilo for 7 days produced 20% reduction in weight of the ventral prostate and 28% reduction of the dorsal lateral prostate.
The following data illustrates the inhibiting effect of estryne and pregnyne on Δ^5 -3-ketosteroid isomerase (EC 5.3.3.1) as evidenced by a depression of the wet weight of the sex accessory tissue in the mature male rat treated with the estryne and pregnyne.
A. Male rats were used to assess the effect of estryne on endogenous androgen biosynthesis at varying doses (1-20 mg/kg body weight). […] On the eighth day the animals were sacrificed and the ventral prostate, dorsal lateral prostate, seminal vesicles, testes, kidneys, and adrenals were removed and weighed. Samples of each tissue were preserved in 10% buffered formalin for histological examination.
B. Male rats were treated with 19-norpregnyne by a regimen exactly as described for the estryne.

[4] = listed as 6β(H)-5,10-secoestra-4,5-diene-2,10,17-trione

Δ^5 -3-ketosteroid isomerase, sequence (P00947 whole entry, stated change not applied): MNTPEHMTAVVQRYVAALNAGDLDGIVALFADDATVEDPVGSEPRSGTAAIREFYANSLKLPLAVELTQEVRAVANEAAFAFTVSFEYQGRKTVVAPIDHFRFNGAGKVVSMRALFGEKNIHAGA

## C[C@]12CC[C@@H]3c4ccc(O)cc4CC[C@H]3[C@@H]1CC[C@@H]2O [17β-estradiol]
Immature uterus
  dose giving maximum stimulation (uterine weight): about 8 μg
Immature uterus; "as low as"
  lowest dose giving a positive response (uterine weight): 0.67 µg

## C[C@]12CC[C@@H]3C(=O)CCC(=O)C=C=CC[C@H]3[C@@H]1CCC2=O [6β(H)-5,10-secoestra-4,5-diene-3,10,17-trione]
[1]; [4]
  half life for loss of enzyme activity: 9 min
  isomerisation of the allenic ketone under assay conditions: partially converted to the 6α isomer
[1]; in words
  inhibition of isomerase: effective
[2]; control 299 mg
  Wt. of Dorsal Lateral Prostate: 235 mg
[2]; control 574 mg
  Wt. of Ventral Prostate: 488 mg
[2]; control 388 g
  Wt. of Animals: 382 g

## C[C@]12CC[C@@H]3C(=O)CCC(=O)CC#CC[C@H]3[C@@H]1CCC2=O [Compound 5, 5,10-secoestr-5-yne-3,10,17-trione]
[3]; 13mg per kilo per day, s.c. in sesame oil, 7 days
  reduction in weight of the ventral prostate: 30%
[3]; 13mg/Kg (so in the source) in propylene glycol (0.2ml) per day for 7 days, i.p., control 421 mg
  Average Weight of Ventral Prostate: 302 mg
[3]; 13mg/Kg in sesame oil (0.2ml) per day for 7 days, s.c., control 238 mg
  Average Weight of Ventral Prostate: 167 mg

## C[C@]12CC[C@@H]3C(=O)CCC(=O)C=C=CC[C@H]3[C@@H]1CCC2=O [6α(H)-5,10-secoestra-4,5-diene-3,10,17-trione]
[1]
  half life for loss of enzyme activity: 11 min
  isomerisation of the allenic ketone under assay conditions: partially converted to the β-isomer
